Data taken from PubChem BioAssay (NCI).
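Cells were grown in 96-well plates and exposed to each compound for 48 hours at five concentrations; endpoints were interpolated linearly between bracketing concentrations, or set to the highest concentration if not reached. The concentration for 50% growth inhibition is given as GI50. TGI denotes the concentration required for complete inhibition of growth.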

What was measured:
Test in all cases: growth of human tumour cells (NCI), 48 h
HOP-62 NSCLC = tested on: HOP-62 NSCLC
MOLT-4 leukemia = tested on: MOLT-4 leukemia
HCT-116 colon = tested on: HCT-116 colon
SF-268 CNS = tested on: SF-268 CNS
HL-60(TB) leukemia = tested on: HL-60(TB) leukemia
LOX IMVI melanoma = tested on: LOX IMVI melanoma
NCI-H226 lung = tested on: NCI-H226 lung
SNB-75 CNS = tested on: SNB-75 CNS
RXF 393 renal = tested on: RXF 393 renal
KM12 colon = tested on: KM12 colon
SW-620 colon = tested on: SW-620 colon
SK-OV-3 ovarian = tested on: SK-OV-3 ovarian
K-562 leukemia = tested on: K-562 leukemia
A549 NSCLC = tested on: A549 NSCLC
OVCAR-8 ovarian = tested on: OVCAR-8 ovarian
786-0 renal = tested on: 786-0 renal
OVCAR-3 ovarian = tested on: OVCAR-3 ovarian
OVCAR-4 ovarian = tested on: OVCAR-4 ovarian
HT29 colon = tested on: HT29 colon
TK-10 renal = tested on: TK-10 renal
NCI/ADR-RES ovarian = tested on: NCI/ADR-RES ovarian
EKVX NSCLC = tested on: EKVX NSCLC
SK-MEL-28 melanoma = tested on: SK-MEL-28 melanoma
OVCAR-5 ovarian = tested on: OVCAR-5 ovarian
SF-295 CNS = tested on: SF-295 CNS
UACC-257 melanoma = tested on: UACC-257 melanoma
M14 melanoma = tested on: M14 melanoma
ACHN renal = tested on: ACHN renal
HCT-15 colon = tested on: HCT-15 colon
DU-145 prostate = tested on: DU-145 prostate
A498 renal = tested on: A498 renal
U251 CNS = tested on: U251 CNS
UACC-62 melanoma = tested on: UACC-62 melanoma
SK-MEL-5 melanoma = tested on: SK-MEL-5 melanoma
COLO 205 colon = tested on: COLO 205 colon
NCI-H460 lung = tested on: NCI-H460 lung
SNB-19 CNS = tested on: SNB-19 CNS
BT-549 breast = tested on: BT-549 breast
NCI-H522 lung = tested on: NCI-H522 lung
T-47D breast = tested on: T-47D breast
MALME-3M melanoma = tested on: MALME-3M melanoma
MDA-MB-231 breast = tested on: MDA-MB-231 breast
SF-539 CNS = tested on: SF-539 CNS
HOP-92 NSCLC = tested on: HOP-92 NSCLC
SN12C renal = tested on: SN12C renal
UO-31 renal = tested on: UO-31 renal
HCC-2998 colon = tested on: HCC-2998 colon
SK-MEL-2 melanoma = tested on: SK-MEL-2 melanoma
MDA-MB-435 = tested on: MDA-MB-435
SR leukemia = tested on: SR leukemia
RPMI-8226 leukemia = tested on: RPMI-8226 leukemia
PC-3 prostate = tested on: PC-3 prostate
NCI-H23 lung = tested on: NCI-H23 lung
CCRF-CEM leukemia = tested on: CCRF-CEM leukemia
HS 578T breast = tested on: HS 578T breast
MCF7 breast = tested on: MCF7 breast
IGROV1 ovarian = tested on: IGROV1 ovarian
CAKI-1 renal = tested on: CAKI-1 renal

## CCOc1nc(-c2ccccc2)cc2c(O)c(C(=O)N/N=C/c3ccc(O)cc3O)[nH]c(=O)c12
HOP-62 NSCLC
  GI50: 1.65 µM
  TGI: > 52.1 µM
MOLT-4 leukemia
  GI50: 0.22 µM
  TGI: > 94.4 µM
HCT-116 colon
  GI50: 0.66 µM
  TGI: 17.5 µM
SF-268 CNS
  GI50: 0.766 µM
  TGI: 16.4 µM
HL-60(TB) leukemia
  GI50: 1.44 µM
  TGI: 13.4 µM
LOX IMVI melanoma
  GI50: 0.686 µM
  TGI: 9.11 µM
NCI-H226 lung
  GI50: 1.49 µM
  TGI: 8.15 µM
SNB-75 CNS
  GI50: 3.16 µM
  TGI: > 42 µM
RXF 393 renal
  GI50: 1.53 µM
  TGI: 11.9 µM
KM12 colon
  GI50: 5.73 µM
  TGI: > 100 µM
SW-620 colon
  GI50: 1.88 µM
  TGI: > 100 µM
SK-OV-3 ovarian
  GI50: 1.26 µM
  TGI: > 24.7 µM
K-562 leukemia
  GI50: 1.62 µM
  TGI: > 100 µM
A549 NSCLC
  GI50: 6.5 µM
  TGI: > 100 µM
OVCAR-8 ovarian
  GI50: 0.965 µM
  TGI: > 37.1 µM
786-0 renal
  GI50: 2.31 µM
  TGI: 8.34 µM
OVCAR-3 ovarian
  GI50: 0.364 µM
  TGI: 10.6 µM
OVCAR-4 ovarian
  GI50: 0.407 µM
  TGI: > 40.8 µM
HT29 colon
  GI50: 5.41 µM
  TGI: > 100 µM
TK-10 renal
  GI50: 6.47 µM
  TGI: > 100 µM
NCI/ADR-RES ovarian
  GI50: 1.77 µM
  TGI: > 31.3 µM
EKVX NSCLC
  GI50: 2.5 µM
  TGI: > 100 µM
SK-MEL-28 melanoma
  GI50: 2.32 µM
  TGI: > 100 µM
OVCAR-5 ovarian
  GI50: 7.06 µM
  TGI: > 100 µM
SF-295 CNS
  GI50: 4.88 µM
  TGI: > 100 µM
UACC-257 melanoma
  GI50: 2.93 µM
  TGI: 17.3 µM
M14 melanoma
  GI50: 1.45 µM
  TGI: 7.16 µM
ACHN renal
  GI50: 1.79 µM
  TGI: > 35.5 µM
HCT-15 colon
  GI50: 1.5 µM
  TGI: > 100 µM
DU-145 prostate
  GI50: 2.61 µM
  TGI: 25.5 µM
A498 renal
  GI50: 3.64 µM
  TGI: 28.5 µM
U251 CNS
  GI50: 0.789 µM
  TGI: > 100 µM
UACC-62 melanoma
  GI50: 1.17 µM
SK-MEL-5 melanoma
  GI50: 1.48 µM
  TGI: > 57.6 µM
COLO 205 colon
  GI50: 0.751 µM
  TGI: 12.6 µM
NCI-H460 lung
  GI50: 3.6 µM
  TGI: 27.6 µM
SNB-19 CNS
  GI50: 1.42 µM
  TGI: > 46.8 µM
BT-549 breast
  GI50: 1.65 µM
  TGI: > 26.3 µM
NCI-H522 lung
  GI50: 1.29 µM
  TGI: 23.5 µM
T-47D breast
  GI50: 1.64 µM
  TGI: 50.1 µM
MALME-3M melanoma
  GI50: 2.86 µM
  TGI: > 40.5 µM
MDA-MB-231 breast
  GI50: 4.12 µM
  TGI: > 93 µM
SF-539 CNS
  GI50: 0.904 µM
  TGI: 6.06 µM
HOP-92 NSCLC
  GI50: 4.42 µM
  TGI: > 100 µM
SN12C renal
  GI50: 2.43 µM
  TGI: > 39 µM
UO-31 renal
  GI50: 1.52 µM
  TGI: 16 µM
HCC-2998 colon
  GI50: 1.95 µM
  TGI: > 82.3 µM
SK-MEL-2 melanoma
  GI50: 5.1 µM
  TGI: 88.8 µM
MDA-MB-435
  GI50: 4.05 µM
  TGI: > 100 µM
SR leukemia
  TGI: > 27.5 µM
RPMI-8226 leukemia
  GI50: 5.62 µM
  TGI: 43 µM
PC-3 prostate
  GI50: 5.55 µM
  TGI: > 100 µM
NCI-H23 lung
  GI50: 4.66 µM
  TGI: > 82.8 µM
CCRF-CEM leukemia
  GI50: 0.357 µM
  TGI: > 23.2 µM
HS 578T breast
  GI50: 14 µM
  TGI: > 100 µM
MCF7 breast
  GI50: 2.17 µM
  TGI: > 32 µM
IGROV1 ovarian
  GI50: 4.08 µM
  TGI: 59.5 µM
CAKI-1 renal
  GI50: 1.91 µM
  TGI: > 29.5 µM
